How the values were obtained:
[1] = Rat in vivo toxicity (survival after LNP dosing); conditions: for Rats that failed to survive 48 hours: rats treated with 3 mg/kg
Experimental: Six hours post dose, food is removed from the cages. Animal necropsy is performed 24 hours after LNP dosing. Rats are anesthetized under isoflurane for 5 minutes, then maintained under anesthesia by placing them in nose cones continuing the delivery of isoflurane until ex-sanguination is completed. Blood is collected from the vena cava using a 23 gauge butterfly venipuncture set and aliquoted to serum separator vacutainers for serum chemistry analysis. Punches of the excised caudate liver lobe are taken and placed in RNALater (Ambion) for mRNA analysis. Preserved liver tissue was homogenized and total RNA isolated using a Qiagen bead mill and the Qiagen miRNA-Easy RNA isolation kit following the manufacturer's instructions. Liver ApoB mRNA levels were determined by quantitative RT-PCR. Message was amplified from purified RNA utilizing a rat ApoB commercial probe set (Applied Biosystems Cat #RN01499054_m1). The PCR reaction was performed on an ABI 7500 instrument with a 96-well Fast Block. The ApoB mRNA level is normalized to the housekeeping PPIB (NM 011149) mRNA. PPIB mRNA levels were determined by RT-PCR using a commercial probe set (Applied Biosystems Cat. No. Mm00478295_m1). Results are expressed as a ratio of ApoB mRNA/PPIB mRNA. All mRNA data is expressed relative to the PBS control dose. Serum ALT and AST analysis were performed on the Siemens Advia 1800 Clinical Chemistry Analyzer utilizing the Siemens alanine aminotransferase (Cat #03039631) and aspartate aminotransferase (Cat #03039631) reagents. […] 3 out of 4 rats treated with 6 mg/kg Compound 2 survived at 48 hours post dose.

[2] = tested on: mRNA transcript for the firefly (Photinus pyralis) luciferase gene; experiment: Mouse in vivo evaluation of efficacy (luciferase siRNA LNP/RDV, liver luminescence); conditions: LSL-Luc transgenic mice, RDV with Luc siRNA tail vein injected, 0.1 to 0.5 mg/kg siRNA, imaged 48 hours post dose; compared with RDV containing octyl-CLinDMA (OCD); FIG. 1
Experimental: LNPs utilizing Compound 1, in the nominal compositions described immediately above, were evaluated for in vivo efficacy. The siRNA targets the mRNA transcript for the firefly (Photinus pyralis) luciferase gene (Accession #M15077). […] The in vivo luciferase model employs a transgenic mouse in which the firefly luciferase coding sequence is present in all cells. ROSA26-LoxP-Stop-LoxP-Luc (LSL-Luc) transgenic mice licensed from the Dana Farber Cancer Institute are induced to express the Luciferase gene by first removing the LSL sequence with a recombinant Ad-Cre virus (Vector Biolabs). Due to the organo-tropic nature of the virus, expression is limited to the liver when delivered via tail vein injection. Luciferase expression levels in liver are quantitated by measuring light output, using an IVIS imager (Xenogen) following administration of the luciferin substrate (Caliper Life Sciences). Pre-dose luminescence levels are measured prior to administration of the RDVs. Luciferin in PBS (15 mg/mL) is intraperitoneally (IP) injected in a volume of 150 μL. After a four minute incubation period mice are anesthetized with isoflurane and placed in the IVIS imager. The RDVs (containing siRNA) in PBS vehicle were tail vein injected n a volume of 0.2 mL. […] In vivo efficacy results are expressed as % inhibition of luminescence relative to pre-dose luminescence levels. […]

[3] = Determination of cationic lipid levels in rat liver (LC/MS-MS); format: in vivo; conditions: rats dosed with RDV; compared with RDV containing DLinKC2DMA (Compound 4) or MC3 (Compound 3); FIG. 3
Experimental: Liver tissue was weighed into 20-ml vials and homogenized in 9 v/w of water using a GenoGrinder 2000 (OPS Diagnostics, 1600 strokes/min, 5 min). A 50 μL aliquot of each tissue homogenate was mixed with 300 μL of extraction/protein precipitating solvent (50/50 acetonitrile/methanol containing 500 nM internal standard) and the plate was centrifuged to sediment precipitated protein. A volume of 200 μL of each supernatant was then transferred to separate wells of a 96-well plate and 10 μl samples were directly analyzed by LC/MS-MS.
Standards were prepared by spiking known amounts of a methanol stock solution of compound into untreated rat liver homogenate (9 vol water/weight liver). Aliquots (50 μL) each standard/liver homogenate was mixed with 300 μL of extraction/protein precipitating solvent (50/50 acetonitrile/methanol containing 500 nM internal standard) and the plate was centrifuged to sediment precipitated protein. A volume of 200 μL of each supernatant was transferred to separate wells of a 96-well plate and 10 μl of each standard was directly analyzed by LC/MS-MS.
Absolute quantification versus standards prepared and extracted from liver homogenate was performed using an Aria LX-2 HPLC system (Thermo Scientific) coupled to an API 4000 triple quadrupole mass spectrometer (Applied Biosystems). […]

Structure (SMILES): CCCCC/C=C\C/C=C\CCCCCCCCC(CCCCCCCC/C=C\C/C=C\CCCCC)OC(=O)CCCN(C)C [Compound 3, MC3]
- Rats that failed to survive 48 hours [1]: 2 out of 4

Structure (SMILES): CCCCC/C=C\C/C=C\CCCCCCCCCC(CCCCCCCCC)OC(=O)CCCN(C)C (centres unmarked) [Compound 1, (20Z,23Z)-nonacosa-20,23-dien-10-yl 4-(dimethylamino)butanoate]
- In vivo efficacy, % inhibition of luminescence relative to pre-dose luminescence levels [2]: Greater efficacy

Structure (SMILES): CCCCCCCC/C=C\CCCCCCCC(CCCCCCCCC)OC(=O)CCCN(C)C (centres unmarked) [Compound 2, (18Z)-heptacos-18-en-10-yl 4-(dimethylamino)butanoate]
- Rats survived at 48 hours post dose ([1]; female, Sprague-Dawley (Crl:CD(SD)), rat, in vivo, 6 mg/kg, 48 h): 3 out of 4
- Cationic lipid liver levels [3]: lower

Structure (SMILES): CCCCC/C=C\C/C=C\CCCCCCCCC1(CCCCCCCC/C=C\C/C=C\CCCCC)OCC(CCN(C)C)O1 (centres unmarked) [Compound 4, DLinKC2DMA]
- Rats that failed to survive 48 hours [1]: 3 out of 4
